Source: patent US6677328B1, “Method for the prevention of colonic adenomas” (priority 1995, dated 2004)

What was measured:
Assay type in all cases: in vivo, Male Fischer 344 rats
[1] = system: azoxymethane-induced colon neoplasms in Fischer 344 rats; assay: Azoxymethane-induced colon tumors in rats on supplemented AIN-76 diet (Example 1); conditions: for Tumor bearing rats, total, number / Tumor bearing rats, benign (adenoma), number / Tumor bearing rats, benign (adenoma), {%} / Tumor bearing rats, malignant (cancers), number / Tumor bearing rats, malignant (cancers), {%} / Tumor bearing rats, total, {%}: azoxymethane 15 mg/kg s.c., sacrifice after 28 weeks
Experimental: (§1) The control group diet is not supplemented at all. After 2 weeks, half of the rats in each group receive azoxymethane (15 mg/kg) or azoxymethane vehicle subcutaneously once a week for two weeks. […] After 28 weeks, the rats are sacrificed, the colons harvested and examined for neoplasms. None of the rats injected with azoxymethane vehicle develop tumors. Since it is believed that malignancies develop from adenomas, the total tumor bearing rat values are particularly enlightening as this represents the number of growths that are still in the adenoma stage and the number of growths that have continued to progress to cancers. Ursodiol reduced the number of growths from control by 50%, with a 100% reduction in those that progressed to cancers and a 33% reduction in the number of tumors that still remained as adenomas.

[2] = system: azoxymethane-induced colon neoplasms in Fischer 344 rats; assay: Azoxymethane rat model, incidence of microadenomas, adenomas and cancers (Example 2); design: Tumor bearing rats, benign (microadenoma) / Tumor bearing rats, benign (adenoma) / Tumor bearing rats, malignant (cancers) / Tumor bearing rats, total: unit not given here; conditions: for Tumor bearing rats, total / Tumor bearing rats, benign (adenoma) / Tumor bearing rats, benign (microadenoma) / Tumor bearing rats, malignant (cancers): azoxymethane model as Example 1
Experimental: as §1
The procedure of Example 1 was followed except that the number of rats involved are as stated in the table below and aberrant crypt frequency was examined upon sacrifice of the rats. The incidence of microadenomas, adenomas, and cancers in the tested populations was recorded and appears in the table below.

[3] = system: azoxymethane-induced colon neoplasms in Fischer 344 rats; assay: Azoxymethane rat model, 7 diets, two study centers (Example 3)
Experimental: The control group diet is not supplemented at all. After 2 weeks, half of the rats in each group receive azoxymethane (15 mg/kg) or azoxymethane vehicle subcutaneously once a week for two weeks. […] After 28 weeks, the rats are sacrificed, the colons harvested and examined for neoplasms.

[4] = Study Center 2, standard diet + 0.2%
[5] = Study Center 2, standard diet + 0.4%
[6] = Study center 1, standard diet + 0.2%
[7] = Study center 1, standard diet + 0.4%
[8] = piroxicam diet, level not given
[9] = Study Center 2, standard diet + Piroxicam, level not given
[10] = Study center 1, standard diet + Piroxicam, level not given

Compound	Tumor bearing rats, benign (adenoma), number ([1]; diet supplement 0.4%)	Tumor bearing rats, benign (adenoma), {%} ([1]; diet supplement 0.4%) [%]	Tumor bearing rats, malignant (cancers), number ([1]; diet supplement 0.4%)	Tumor bearing rats, malignant (cancers), {%} ([1]; diet supplement 0.4%)	Tumor bearing rats, total, {%} ([1]; diet supplement 0.4%) [%]	Tumor bearing rats, benign (adenoma) ([2]; diet supplement 0.4%)	Tumor bearing rats, benign (microadenoma) ([2]; diet supplement 0.4%)	Tumor bearing rats, malignant (cancers) ([2]; diet supplement 0.4%)	Tumor bearing rats, benign [3, 4]	Tumor bearing rats, malignant [3, 4]	Tumor bearing rats, total [3, 4]	Tumor bearing rats, benign [3, 5]	Tumor bearing rats, malignant [3, 5]	Tumor bearing rats, total [3, 5]	Tumor bearing rats, benign [3, 6]	Tumor bearing rats, malignant [3, 6]	Tumor bearing rats, total [3, 6]	Tumor bearing rats, benign [3, 7]	Tumor bearing rats, malignant [3, 7]	Tumor bearing rats, total [3, 7]	further results
C[C@H](CCC(=O)O)[C@H]1CC[C@H]2[C@@H]3[C@H](O)C[C@@H]4C[C@H](O)CC[C@]4(C)[C@H]3C[C@H](O)[C@]12C [Cholic Acid, Cholic acid]	20	43	14	30%	73	71	57	38	6	8	14	8	9	17	12	4	16	12	5	17	Effect on number of adenomas present ([1]; 0.4% in diet, in words): increased the number of adenomas which were present; Effect on number of malignancies over control ([1]; 0.4% in diet, in words): increased the number of malignancies over control; Tumor bearing rats, total, number ([1]; control, diet not supplemented): 34; Tumor bearing rats, total [2]: 166
CN1C(C(=O)Nc2ccccn2)=C(O)c2ccccc2S1(=O)=O [Piroxicam]	–	–	–	–	–	–	–	–	–	–	–	–	–	–	–	–	–	–	–	–	Effect on adenomas and malignancies ([1]; 75 ppm in diet, in words, compared with ursodiol): reduced both adenomas and malignancies, but neither was reduced as dramatically as seen with ursodiol administration; Tumor bearing rats, benign (adenoma), number ([1]; diet supplement 75 ppm): 16; Tumor bearing rats, benign (adenoma), {%} ([1]; diet supplement 75 ppm): 29%; Tumor bearing rats, malignant (cancers), number ([1]; diet supplement 75 ppm): 3; Tumor bearing rats, malignant (cancers), {%} ([1]; diet supplement 75 ppm): 5%; Tumor bearing rats, total, number ([1]; diet supplement 75 ppm): 19; Tumor bearing rats, total, {%} ([1]; diet supplement 75 ppm): 34%; Tumor bearing rats, benign (adenoma) [2, 8]: 42; Tumor bearing rats, benign (microadenoma) [2, 8]: 25; Tumor bearing rats, malignant (cancers) [2, 8]: 8; Tumor bearing rats, total [2, 8]: 75; Tumor bearing rats, benign [3, 9]: 8; Tumor bearing rats, malignant [3, 9]: 2; Tumor bearing rats, total [3, 9]: 10; Tumor bearing rats, benign [3, 10]: 8; Tumor bearing rats, malignant [3, 10]: 1; Tumor bearing rats, total [3, 10]: 9
C[C@H](CCC(=O)O)[C@H]1CC[C@H]2[C@@H]3[C@@H](O)C[C@@H]4C[C@H](O)CC[C@]4(C)[C@H]3CC[C@]12C [Ursodiol, 3-α-7-β-dihydroxy-5-β-cholan-24-oic acid]	10	22	0 {0}	0 {0} %	22	27	23	0	6	4	10	6	0	6	8	5	13	4	0	4	Reduction of the number of growths from control ([1]; 0.4% in diet, total tumor bearing rats vs control): 50%; Reduction in growths that progressed to cancers ([1]; 0.4% in diet, vs control): 100%; Reduction in the number of tumors that still remained as adenomas ([1]; 0.4% in diet, vs control): 33%; Tumor bearing rats, total, number ([1]; diet supplement 0.4%): 10; Effect on incidence of malignancies and on number and size of non-cancerous or pre-cancerous growths ([2]; 0.4% in diet, in words): not only reduces the incidence of malignancies, but also reduces both the number and size of the non-cancerous or pre-cancerous growths; Tumor bearing rats, total ([2]; diet supplement 0.4%): 50; Effect in preventing the development of tumors at lower concentration ([3]; 0.2% in diet compared with 0.4%, in words): does not seem to be as strong as lower concentrations of ursodiol, i.e., 0.2%
